PubChem BioAssay (NCI)
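Each compound was tested at five concentrations against cells in 96-well plates for 48 hours. TGI denotes the concentration required for complete inhibition of growth.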

test system: M14 melanoma; test: DTP human tumour cell line panel, 48 h

Row | Compound | TGI
1 | O=C1OC(=O)C([Se]c2ccccc2)=C1[Se]c1ccccc1 | > 100 µM
2 | CCOP(=O)(O)C(Nc1ccc(N=Nc2ccccc2)cc1)c1cccc(C(Nc2ccc(N=Nc3ccccc3)cc2)P(=O)(O)OCC)c1 (centres undefined) | > 100 µM
3 | CCCCCCCCC(O)c1ccc(/C=C\C(O)CCCC(=O)O)s1 (centres undefined) | > 100 µM
4 | N#CCc1cccc(CC#N)c1Br | > 100 µM
5 | COC(=O)c1c(O)ccc2c1c1c(n2Cc2cc(OC)cc(OC)c2)C(=O)c2ccccc2C1=O | 26.2 µM
6 | COc1cc([C@@H]2c3cc4c(cc3[C@@H](NCc3cccc(C#N)c3)C3COC(=O)[C@@H]32)OCO4)cc(OC)c1O (some centres undefined) | 6.22 µM

test system: MDA-MB-435; test: DTP human tumour cell line panel, 48 h

Row | Compound | TGI
7 | CCOP(=O)(O)C(Nc1ccc(N=Nc2ccccc2)cc1)c1cccc(C(Nc2ccc(N=Nc3ccccc3)cc2)P(=O)(O)OCC)c1 (centres undefined) | > 100 µM
8 | COC(=O)c1c(O)ccc2c1c1c(n2Cc2cc(OC)cc(OC)c2)C(=O)c2ccccc2C1=O | 12.9 µM

test system: OVCAR-3 ovarian; test: DTP human tumour cell line panel, 48 h

Row | Compound | TGI
9 | CCCCCCCCCCCCCCCc1nc(=S)[nH][nH]1 | > 100 µM
10 | O=C1OC(=O)C([Se]c2ccccc2)=C1[Se]c1ccccc1 | > 100 µM
11 | CCOP(=O)(O)C(Nc1ccc(N=Nc2ccccc2)cc1)c1cccc(C(Nc2ccc(N=Nc3ccccc3)cc2)P(=O)(O)OCC)c1 (centres undefined) | > 100 µM
12 | CCCCCCCCC(O)c1ccc(/C=C\C(O)CCCC(=O)O)s1 (centres undefined) | > 100 µM
13 | N#CCc1cccc(CC#N)c1Br | > 100 µM
14 | COC(=O)c1c(O)ccc2c1c1c(n2Cc2cc(OC)cc(OC)c2)C(=O)c2ccccc2C1=O | 25 µM
15 | COc1cc([C@@H]2c3cc4c(cc3[C@@H](NCc3cccc(C#N)c3)C3COC(=O)[C@@H]32)OCO4)cc(OC)c1O (some centres undefined) | 8.47 µM

test system: HL-60(TB) leukemia; test: DTP human tumour cell line panel, 48 h

Row | Compound | TGI
16 | CCCCCCCCCCCCCCCc1nc(=S)[nH][nH]1 | > 100 µM
17 | O=C1OC(=O)C([Se]c2ccccc2)=C1[Se]c1ccccc1 | > 100 µM
18 | CCOP(=O)(O)C(Nc1ccc(N=Nc2ccccc2)cc1)c1cccc(C(Nc2ccc(N=Nc3ccccc3)cc2)P(=O)(O)OCC)c1 (centres undefined) | 69.7 µM
19 | CCCCCCCCC(O)c1ccc(/C=C\C(O)CCCC(=O)O)s1 (centres undefined) | > 100 µM
20 | N#CCc1cccc(CC#N)c1Br | > 100 µM
21 | COC(=O)c1c(O)ccc2c1c1c(n2Cc2cc(OC)cc(OC)c2)C(=O)c2ccccc2C1=O | 39.4 µM
22 | COc1cc([C@@H]2c3cc4c(cc3[C@@H](NCc3cccc(C#N)c3)C3COC(=O)[C@@H]32)OCO4)cc(OC)c1O (some centres undefined) | 1.51 µM

test system: NCI/ADR-RES ovarian; test: DTP human tumour cell line panel, 48 h

Row | Compound | TGI
23 | CCOP(=O)(O)C(Nc1ccc(N=Nc2ccccc2)cc1)c1cccc(C(Nc2ccc(N=Nc3ccccc3)cc2)P(=O)(O)OCC)c1 (centres undefined) | > 100 µM
24 | COC(=O)c1c(O)ccc2c1c1c(n2Cc2cc(OC)cc(OC)c2)C(=O)c2ccccc2C1=O | 21.8 µM

test system: OVCAR-5 ovarian; test: DTP human tumour cell line panel, 48 h

Row | Compound | TGI
25 | CCCCCCCCCCCCCCCc1nc(=S)[nH][nH]1 | > 100 µM
26 | O=C1OC(=O)C([Se]c2ccccc2)=C1[Se]c1ccccc1 | > 100 µM
27 | CCOP(=O)(O)C(Nc1ccc(N=Nc2ccccc2)cc1)c1cccc(C(Nc2ccc(N=Nc3ccccc3)cc2)P(=O)(O)OCC)c1 (centres undefined) | > 100 µM
28 | CCCCCCCCC(O)c1ccc(/C=C\C(O)CCCC(=O)O)s1 (centres undefined) | > 100 µM
29 | N#CCc1cccc(CC#N)c1Br | > 100 µM
30 | COC(=O)c1c(O)ccc2c1c1c(n2Cc2cc(OC)cc(OC)c2)C(=O)c2ccccc2C1=O | 55.9 µM
31 | COc1cc([C@@H]2c3cc4c(cc3[C@@H](NCc3cccc(C#N)c3)C3COC(=O)[C@@H]32)OCO4)cc(OC)c1O (some centres undefined) | 14.6 µM

test system: HCT-15 colon; test: DTP human tumour cell line panel, 48 h

Row | Compound | TGI
32 | CCCCCCCCCCCCCCCc1nc(=S)[nH][nH]1 | > 100 µM
33 | O=C1OC(=O)C([Se]c2ccccc2)=C1[Se]c1ccccc1 | > 100 µM
34 | CCOP(=O)(O)C(Nc1ccc(N=Nc2ccccc2)cc1)c1cccc(C(Nc2ccc(N=Nc3ccccc3)cc2)P(=O)(O)OCC)c1 (centres undefined) | > 100 µM
35 | CCCCCCCCC(O)c1ccc(/C=C\C(O)CCCC(=O)O)s1 (centres undefined) | > 100 µM
36 | N#CCc1cccc(CC#N)c1Br | > 100 µM
37 | COC(=O)c1c(O)ccc2c1c1c(n2Cc2cc(OC)cc(OC)c2)C(=O)c2ccccc2C1=O | 21.1 µM
38 | COc1cc([C@@H]2c3cc4c(cc3[C@@H](NCc3cccc(C#N)c3)C3COC(=O)[C@@H]32)OCO4)cc(OC)c1O (some centres undefined) | 3.17 µM

test system: SK-OV-3 ovarian; test: DTP human tumour cell line panel, 48 h

Row | Compound | TGI
39 | CCCCCCCCCCCCCCCc1nc(=S)[nH][nH]1 | > 100 µM
40 | O=C1OC(=O)C([Se]c2ccccc2)=C1[Se]c1ccccc1 | > 100 µM
41 | CCOP(=O)(O)C(Nc1ccc(N=Nc2ccccc2)cc1)c1cccc(C(Nc2ccc(N=Nc3ccccc3)cc2)P(=O)(O)OCC)c1 (centres undefined) | > 100 µM
42 | CCCCCCCCC(O)c1ccc(/C=C\C(O)CCCC(=O)O)s1 (centres undefined) | > 100 µM
43 | N#CCc1cccc(CC#N)c1Br | > 100 µM
44 | COC(=O)c1c(O)ccc2c1c1c(n2Cc2cc(OC)cc(OC)c2)C(=O)c2ccccc2C1=O | 37.5 µM
45 | COc1cc([C@@H]2c3cc4c(cc3[C@@H](NCc3cccc(C#N)c3)C3COC(=O)[C@@H]32)OCO4)cc(OC)c1O (some centres undefined) | 4.12 µM

test system: SNB-78 CNS; test: DTP human tumour cell line panel, 48 h

Row | Compound | TGI
46 | CCCCCCCCCCCCCCCc1nc(=S)[nH][nH]1 | > 100 µM
47 | O=C1OC(=O)C([Se]c2ccccc2)=C1[Se]c1ccccc1 | > 100 µM
48 | CCCCCCCCC(O)c1ccc(/C=C\C(O)CCCC(=O)O)s1 (centres undefined) | > 100 µM
49 | N#CCc1cccc(CC#N)c1Br | > 100 µM

test system: SNB-75 CNS; test: DTP human tumour cell line panel, 48 h

Row | Compound | TGI
50 | CCCCCCCCCCCCCCCc1nc(=S)[nH][nH]1 | > 100 µM
51 | O=C1OC(=O)C([Se]c2ccccc2)=C1[Se]c1ccccc1 | > 100 µM
52 | CCOP(=O)(O)C(Nc1ccc(N=Nc2ccccc2)cc1)c1cccc(C(Nc2ccc(N=Nc3ccccc3)cc2)P(=O)(O)OCC)c1 (centres undefined) | > 100 µM
53 | CCCCCCCCC(O)c1ccc(/C=C\C(O)CCCC(=O)O)s1 (centres undefined) | > 100 µM
54 | N#CCc1cccc(CC#N)c1Br | > 100 µM
55 | COC(=O)c1c(O)ccc2c1c1c(n2Cc2cc(OC)cc(OC)c2)C(=O)c2ccccc2C1=O | 58.7 µM
56 | COc1cc([C@@H]2c3cc4c(cc3[C@@H](NCc3cccc(C#N)c3)C3COC(=O)[C@@H]32)OCO4)cc(OC)c1O (some centres undefined) | 4.45 µM

test system: SK-MEL-2 melanoma; test: DTP human tumour cell line panel, 48 h

Row | Compound | TGI
57 | CCCCCCCCCCCCCCCc1nc(=S)[nH][nH]1 | > 100 µM
58 | CCOP(=O)(O)C(Nc1ccc(N=Nc2ccccc2)cc1)c1cccc(C(Nc2ccc(N=Nc3ccccc3)cc2)P(=O)(O)OCC)c1 (centres undefined) | > 100 µM
59 | CCCCCCCCC(O)c1ccc(/C=C\C(O)CCCC(=O)O)s1 (centres undefined) | > 100 µM
60 | N#CCc1cccc(CC#N)c1Br | > 100 µM
61 | COC(=O)c1c(O)ccc2c1c1c(n2Cc2cc(OC)cc(OC)c2)C(=O)c2ccccc2C1=O | 27.2 µM
62 | COc1cc([C@@H]2c3cc4c(cc3[C@@H](NCc3cccc(C#N)c3)C3COC(=O)[C@@H]32)OCO4)cc(OC)c1O (some centres undefined) | 8.78 µM

test system: NCI-H23 lung; test: DTP human tumour cell line panel, 48 h

Row | Compound | TGI
63 | CCCCCCCCCCCCCCCc1nc(=S)[nH][nH]1 | > 100 µM
64 | O=C1OC(=O)C([Se]c2ccccc2)=C1[Se]c1ccccc1 | > 100 µM
65 | CCOP(=O)(O)C(Nc1ccc(N=Nc2ccccc2)cc1)c1cccc(C(Nc2ccc(N=Nc3ccccc3)cc2)P(=O)(O)OCC)c1 (centres undefined) | > 100 µM
66 | CCCCCCCCC(O)c1ccc(/C=C\C(O)CCCC(=O)O)s1 (centres undefined) | > 100 µM
67 | N#CCc1cccc(CC#N)c1Br | > 100 µM
68 | COC(=O)c1c(O)ccc2c1c1c(n2Cc2cc(OC)cc(OC)c2)C(=O)c2ccccc2C1=O | 27 µM
69 | COc1cc([C@@H]2c3cc4c(cc3[C@@H](NCc3cccc(C#N)c3)C3COC(=O)[C@@H]32)OCO4)cc(OC)c1O (some centres undefined) | 1.76 µM

test system: DMS 273 small cell lung; test: DTP human tumour cell line panel, 48 h

Row | Compound | TGI
70 | CCCCCCCCC(O)c1ccc(/C=C\C(O)CCCC(=O)O)s1 (centres undefined) | > 100 µM
71 | N#CCc1cccc(CC#N)c1Br | > 100 µM
72 | COc1cc([C@@H]2c3cc4c(cc3[C@@H](NCc3cccc(C#N)c3)C3COC(=O)[C@@H]32)OCO4)cc(OC)c1O (some centres undefined) | 5.89 µM

test system: SNB-19 CNS; test: DTP human tumour cell line panel, 48 h

Row | Compound | TGI
73 | CCCCCCCCCCCCCCCc1nc(=S)[nH][nH]1 | > 100 µM
74 | O=C1OC(=O)C([Se]c2ccccc2)=C1[Se]c1ccccc1 | > 100 µM
75 | CCOP(=O)(O)C(Nc1ccc(N=Nc2ccccc2)cc1)c1cccc(C(Nc2ccc(N=Nc3ccccc3)cc2)P(=O)(O)OCC)c1 (centres undefined) | > 100 µM
76 | CCCCCCCCC(O)c1ccc(/C=C\C(O)CCCC(=O)O)s1 (centres undefined) | > 100 µM
77 | N#CCc1cccc(CC#N)c1Br | > 100 µM
78 | COC(=O)c1c(O)ccc2c1c1c(n2Cc2cc(OC)cc(OC)c2)C(=O)c2ccccc2C1=O | > 100 µM
79 | COc1cc([C@@H]2c3cc4c(cc3[C@@H](NCc3cccc(C#N)c3)C3COC(=O)[C@@H]32)OCO4)cc(OC)c1O (some centres undefined) | 7.74 µM

test system: COLO 205 colon; test: DTP human tumour cell line panel, 48 h

Row | Compound | TGI
80 | O=C1OC(=O)C([Se]c2ccccc2)=C1[Se]c1ccccc1 | > 100 µM
81 | CCOP(=O)(O)C(Nc1ccc(N=Nc2ccccc2)cc1)c1cccc(C(Nc2ccc(N=Nc3ccccc3)cc2)P(=O)(O)OCC)c1 (centres undefined) | 43.2 µM
82 | CCCCCCCCC(O)c1ccc(/C=C\C(O)CCCC(=O)O)s1 (centres undefined) | > 100 µM
83 | N#CCc1cccc(CC#N)c1Br | > 100 µM
84 | COC(=O)c1c(O)ccc2c1c1c(n2Cc2cc(OC)cc(OC)c2)C(=O)c2ccccc2C1=O | 3.28 µM
85 | COc1cc([C@@H]2c3cc4c(cc3[C@@H](NCc3cccc(C#N)c3)C3COC(=O)[C@@H]32)OCO4)cc(OC)c1O (some centres undefined) | 21.4 µM

test system: DLD-1 colon; test: DTP human tumour cell line panel, 48 h

Row | Compound | TGI
86 | O=C1OC(=O)C([Se]c2ccccc2)=C1[Se]c1ccccc1 | > 100 µM
87 | CCCCCCCCC(O)c1ccc(/C=C\C(O)CCCC(=O)O)s1 (centres undefined) | > 100 µM
88 | N#CCc1cccc(CC#N)c1Br | > 100 µM
89 | COc1cc([C@@H]2c3cc4c(cc3[C@@H](NCc3cccc(C#N)c3)C3COC(=O)[C@@H]32)OCO4)cc(OC)c1O (some centres undefined) | 12.7 µM

test system: M19-MEL melanoma; test: DTP human tumour cell line panel, 48 h

Row | Compound | TGI
90 | CCCCCCCCCCCCCCCc1nc(=S)[nH][nH]1 | > 100 µM
91 | CCCCCCCCC(O)c1ccc(/C=C\C(O)CCCC(=O)O)s1 (centres undefined) | > 100 µM
92 | COc1cc([C@@H]2c3cc4c(cc3[C@@H](NCc3cccc(C#N)c3)C3COC(=O)[C@@H]32)OCO4)cc(OC)c1O (some centres undefined) | 50.3 µM

test system: MDA-MB-231 breast; test: DTP human tumour cell line panel, 48 h

Row | Compound | TGI
93 | CCOP(=O)(O)C(Nc1ccc(N=Nc2ccccc2)cc1)c1cccc(C(Nc2ccc(N=Nc3ccccc3)cc2)P(=O)(O)OCC)c1 (centres undefined) | > 100 µM
94 | COC(=O)c1c(O)ccc2c1c1c(n2Cc2cc(OC)cc(OC)c2)C(=O)c2ccccc2C1=O | 35.7 µM
